Data published in patent publication US7692014B2, “Inhibitors of the HIV integrase enzyme” (Pfizer, Inc., priority 2004, dated 2010).

What follows are molecules tested against T1, Full-length wild type HIV-1 integrase (SF1) (Human immunodeficiency virus type 1 group M subtype B, UniProt P04585) (assay: Integrase strand-transfer scintillation proximity assay). Conditions: IC50, integrase strand-transfer SPA.
T1 construct: made in house; host or cells: E. coli BL21 (DE3), pET24a vector
Type: biochemical
Excerpt: Integrase Strand-Transfer Scintillation Proximity Assay Oligonucleotides
The annealed product represents preprocessed viral ds-DNA derived from the LTR U5 sequence of the viral genome. A ds-DNA control to test for non-specific interactions was made using a 3′ di-deoxy derivative of oligonucleotide #1 annealed to oligonucleotide #2. The CA overhang at the 5′ end of the non-biotinylated strand of the ds-DNA was created artificially by using a complimentary DNA oligonucleotide shortened by 2 base pairs. This configuration eliminates the requisite 3′ processing step of the integrase enzyme prior to the strand-transfer mechanism.
Host ds-DNA was prepared as an unlabeled and [^3H]-thymidine labeled product from annealed oligonucleotide #3—5-[…]-3′ (SEQ ID NO: 3), and oligonucleotide #4—5′-[…]-3′ (SEQ ID NO: 4), both synthesized by TriLink BioTechnologies, Inc. (San Diego, Calif.). The annealed product had overhanging 3′ ends of poly(dA). […] The radiolabeled product was purified using a NENSORB cartridge and stored in stabilized aqueous solution (PerkinElmer).
Reagents: Streptavidin-coated polyvinyltoluene (PVT) SPA beads were purchased from Amersham Biosciences (Piscataway, N.J.). Cesium chloride was purchased from Shelton Scientific, Inc. (Shelton, Conn.). White, polystyrene, flat-bottom, non-binding surface, 96-well plates were purchased from Corning. All other buffer components were purchased from Sigma (St. Louis, Mo.) unless otherwise indicated. Enzyme Construction: Full-length wild type HIV-1 integrase (SF1) sequence (amino acids 1-288) was constructed in a pET24a vector (Novagen, Madison, Wis.). […] Enzyme Purification: Full length wild-type HIV Integrase was expressed in E.coli BL21 (DE3) cells and induced with 1 mM isopropyl-1 thio-β-D-galactopyranoside (IPTG) when cells reached an optical density between 0.8-1.0 at 600 nm. Cells were lysed by microfluidation in 50 mM HEPES pH 7.0, 75 mM NaCl, 5 mM DTT, 1 mM 4-(2-Aminoethyl)benzenesulfonylfluoride HCl (AEBSF). Lysate was then centrifuged 20 minutes at 11 k rpm in GSA rotor in Sorvall RC-5B at 4° C. Supernant was discarded and pellet resuspended in 50 mM HEPES pH 7.0, 750 mM NaCl, 5 mM DTT, 1 mM AEBSF and homogenized in a 40 mL Dounce homogenizer for 20 minutes on ice. Homogenate was then centrifuged 20 minutes at 11 k rpm in SS34 rotor in Sorvall RC-5B at 4° C. Supernant was discarded and pellet resuspended in 50 mM HEPES pH 7.0, 750 mM NaCl, 25 mM CHAPS, 5 mM DTT, 1 mM AEBSF. Preparation was then centrifuged 20 minutes at 11 k rpm in SS34 rotor in Sorvall RC-5B at 4° C.
Supernant was then diluted 1:1 with 50 mM HEPES pH 7.0, 25 mM CHAPS, 1 mM DTT, 1 mM AEBSF and loaded onto a Q-Sepharose column pre-equilibrated with 50 mM HEPES, pH 7.0, 375 mM NaCl, 25 mM CHAPS, 1 mM DTT, 1 mM AEBSF. The flow through peak was collected and NaCl diluted to 0.1 M with 50 mM HEPES pH 7.0, 25 mM CHAPS, 1 mM DTT, 0.5 mM AEBSF and loaded onto a SP-Sepharose column pre-equilibrated with 50 mM HEPES pH 7.0, 100 mM NaCl, 25 mM CHAPS, 1 mM DTT, 0.5 mM AEBSF. After washing the column with the equilibration buffer, a 100 to 400 mM NaCl gradient was run. The eluted integrase was concentrated and run on a S-300 gel diffusion column using 50 mM HEPES pH 7.0, 500 mM NaCl, 25 mM CHAPS, 1 mM DTT, 0.5 mM AEBSF. […] All columns were run in a 4° C. cold room.
Viral DNA Bead Preparation: Streptavidin-coated SPA beads were suspended to 20 mg/mL in 25 mM 3-morpholinopropanesulfonic acid (MOPS) (pH 7.2) and 1.0% NaN3.

SMILES	IC50 [nM]
NC(=O)[C@@H]1CCCN1Cc1cn(Cc2ccc(F)cc2)c2cnc3c(=O)n(O)ccc3c12 [Example 5, 1-{[3-(4-fluorobenzyl)-7-hydroxy-6-oxo-6,7-dihydro-3H-pyrrolo[2,3-c]-1,7-naphthyridin-1-yl]methyl}-L-prolinamide]	18

Same assay, conditions: integrase strand-transfer SPA; read-out: IC50

SMILES	IC50 [nM]
O=c1c2ncc3c(ccn3Cc3ccc(F)cc3)c2ccn1O [Example 1, 3-(4-Fluorobenzyl)-7-hydroxy-3,7-dihydro-6H-pyrrolo[2,3-c]-1,7-naphthyridin-6-one]	20
O=C1c2ncc3c(ccn3Cc3ccc(F)cc3)c2CCN1O [Example 2, 3-(4-Fluorobenzyl)-7-hydroxy-3,7,8,9-tetrahydro-6H-pyrrolo[2,3-c]-1,7-naphthyridin-6-one]	30
O=C1c2ncc3c(ccn3Cc3ccc(F)cc3)c2CCCN1O [Example 3, 3-(4-Fluorobenzyl)-7-hydroxy-7,8,9,10-tetrahydropyrrolo[3′,2′:4,5]pyrido[2,3-c]azepin-6(3H)-one]	17
CN(C)Cc1cn(Cc2ccc(F)cc2)c2cnc3c(=O)n(O)ccc3c12 [Example 4, 1-[(dimethylamino)methyl]-3-(4-fluorobenzyl)-7-hydroxy-3,7-dihydro-6H-pyrrolo[2,3-c]-1,7-naphthyridin-6-one]	8
O=C1CN(Cc2cn(Cc3ccc(F)cc3)c3cnc4c(=O)n(O)ccc4c23)CCN1 [Example 6, 3-(4-fluorobenzyl)-7-hydroxy-1-[(3-oxopiperazin-1-yl)methyl]-3,7-dihydro-6H-pyrrolo(2,3-c]-1,7-naphthyridin-6-one]	7
CN1CCN(Cc2cn(Cc3ccc(F)cc3)c3cnc4c(=O)n(O)ccc4c23)CC1 [Example 7, 3-(4-fluorobenzyl)-7-hydroxy-1-[(4-methylpiperazin-1-yl)methyl]-3,7-dihydro-6H-pyrrolo[2,3-c]-1,7-naphthyridin-6-one]	17
CCN1CCN(Cc2cn(Cc3ccc(F)cc3)c3cnc4c(=O)n(O)ccc4c23)CC1 [Example 8, 1[(4-ethylpiperazin-1-yl)methyl]-3-(4-fluorobenzyl)-7-hydroxy-3,7-dihydro-6H-pyrrolo[2,3-c]-1,7-naphthyridin-6-one]	14
O=c1c2ncc3c(c(CN4CCc5ccccc5C4)cn3Cc3ccc(F)cc3)c2ccn1O [Example 10, 1-(3,4-dihydroisoquinolin-2(1H)-ylmethyl)-3-(4-fluorobenzyl)-7-hydroxy-3,7-dihydro-6H-pyrrolo[2,3-c]-1,7-naphthyridin-6-one]	40
CCCCCN(C)Cc1cn(Cc2ccc(F)cc2)c2cnc3c(=O)n(O)ccc3c12 [Example 11, 3-(4-fluorobenzyl)-7-hydroxy-1-{[methyl(pentyl)amino]methyl}-3,7-dihydro-6H-pyrrolo[2,3-c]-1,7-naphthyridin-6-one]	6
NC(=O)[C@H]1CCCN1Cc1cn(Cc2ccc(F)cc2)c2cnc3c(=O)n(O)ccc3c12 [Example 12, 1-{[3-(4-fluorobenzyl)-7-hydroxy-6-oxo-6,7-dihydro-3H-pyrrolo[2,3-c]-1,7-naphthyridin-1-yl]methyl)-D-prolinamide]	13
O=C1NCCC12CCN(Cc1cn(Cc3ccc(F)cc3)c3cnc4c(=O)n(O)ccc4c13)CC2 [Example 13, 3-(4-fluorobenzyl)-7-hydroxy-1-[(1-oxo-2,8-diazaspiro[4,5]dec-8-yl)methyl]-3,7-dihydro-6H-pyrrolo[2,3-c]-1,7-naphthyridin-6-one]	8
CCN(Cc1cn(Cc2ccc(F)cc2)c2cnc3c(=O)n(O)ccc3c12)C1CCCCC1 [Example 14, 1-{[cyclohexyl(ethyl)amino]methyl}-3-(4-fluorobenzyl)-7-hydroxy-3,7-dihydro-6H-pyrrolo[2,3-c]-1,7-naphthyridin-6-one]	13
O=C(CN1CCN(Cc2cn(Cc3ccc(F)cc3)c3cnc4c(=O)n(O)ccc4c23)CC1)N1CCCC1 [Example 15, 3-(4-fluorobenzyl)-7-hydroxy-1-{[4-(2-oxo-2-pyrrolidin-1-ylethyl)piperazin-1-yl]methyl}-3,7-dihydro-6H-pyrrolo[2,3-c]-1,7-naphthyridin-6-one]	5
